Columns and labels:
[1] = Fe++-induced oxidation of liposomes (MDA/TBA read-out); format: biochemical, hen; conditions: for Protection against Fe++-induced oxidation in %: 50 μM Fe++, 30 minutes, room temperature
Text: (§1) The biologic membranes play the most important role in cell vital activity. The high sensibility of lipids and phospholipids, which are the main structural components of biomembranes, as to oxidative stress, including those caused by irradiation, is the consequence of the high content of unsaturated fatty acids. The liposomes being obtained from phospholipids of hen's egg yolk were used as a model of the biomembranes. The phospholipids are able to form liposome emulsions in water; this allows studying in model experiments the radioprotective and antioxidant properties of various water-soluble and water-insoluble compounds, including water-insoluble phytoene as well. To obtain the liposomes, 20 mg of the phospholipids, being dissolved in chloroform, were entered into a conical vial and dried in vacuum. Then 2 ml of a saline solution containing 0.15 M NaCl, 0.005 M KCl, 0.0012 M KH2PO4, 0.0012 M Na2HPO4 at pH 7.4 was added to the dried sample. The mixture has been shaken, input into an ultrasonic bath for 30 seconds, and then the total volume was increased up to 10 ml, stirred, treated with ultrasound, and as the result the liposome suspension with the phospholipid concentration of 2 mg/ml was received. […] Optical density of the colored TBA products was calculated by the optical density data, considering the molar extinction coefficient at 532 nm equals to 156,000 mol^-1·cm^-1. […] Taking as 100% the level of the MDA increment at the induced liposome oxidation above spontaneous phospholipids oxidation in the absence of phytoene, and taking into account the fact that the presence of phytoene in the liposomes can modify the level of the spontaneous oxidation, the protection efficacy (PE)OK in the […] of the induced liposome oxidation was calculated by the formula: (PE)OK=(CPOK-CPK)·100/(COK-CK), in which CPK , CPOK are the MDA concentrations in the liposomes with phytoene before and after the liposome induced oxidation respectively; CK, COK (are the MDA concentrations in the control liposomes (without phytoene) before and after the liposome induced oxidation respectively.

[2] = Radiation-induced oxidation of liposomes (MDA/TBA read-out); format: biochemical, hen; conditions: for Radioprotection in %: 500 Gy Co60 γ-quanta, 84.8 Gy/min, liposomes 2 mg/ml phospholipids in saline solution
Text: as §1

SMILES: CC(C)=CCC/C(C)=C/CC/C(C)=C/CC/C(C)=C/C=C/C=C(\C)CC/C=C(\C)CC/C=C(\C)CCC=C(C)C (stereo in doubt) [phytoene]
- Protection against Fe++-induced oxidation in % ([1]; phytoene:phospholipid 1:10): 50.9 ± 6.6%
- Protection against Fe++-induced oxidation in % ([1]; phytoene:phospholipid 1:100): 18.7 ± 11.5%
- Protection of liposomes against oxidative stress induced with ferrous iron ions (in words) ([1]; summary statement): protects the liposomes against the oxidative stress
- Radioprotection in % ([2]; phytoene:phospholipid 1:10): 62.0 ± 10.4%
- Radioprotection in % ([2]; phytoene:phospholipid 1:100): 37.2 ± 5.2%
- Protection of liposomes against oxidative stress induced by the radiation (in words) ([2]; summary statement): protects the liposomes against the oxidative stress
